What was measured:
Assay in all cases: relative viability (nuclei count vs DMSO), 5 days (fraction); higher = more cells survive
[1] = compound: Cc1cc([C@@H](C)Nc2ccccc2C(=O)O)c2nc(N3CCOCC3)cc(=O)n2c1 [AZD6482] + Cc1nc(Nc2ncc(C(=O)Nc3c(C)cccc3Cl)s2)cc(N2CCN(CCO)CC2)n1 [Dasatinib] (partner 0.075 µM)
Summary of the method: (§1)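 After 5 days of treatment, lung cancer cells in 1536-well plates were fixed and stained in a single step (final 0.05% Triton X-100, 1% formaldehyde, 1 ug/ml Hoechst) and their nuclei counted on 4× images. Treatment had been applied by pin tool the day after seeding as one drug alone or as a fixed anchor-drug dose with five library-drug doses (not always all listed) in √10 steps. Relative viability is the nuclei count of treated wells divided by that of vehicle wells, and values are medians of duplicate plates.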

[2] = compound: COc1cc2nc(N3CCCN(C)CC3)nc(NC3CCN(Cc4ccccc4)CC3)c2cc1OC + Nc1ncn([C@H]2C[C@H](O)[C@@H](CO)O2)c(=O)n1 [Decitabine] (partner 2 µM)
Summary of the method: as §1

[3] = compound: Cc1cc([C@@H](C)Nc2ccccc2C(=O)O)c2nc(N3CCOCC3)cc(=O)n2c1 [AZD6482] + CCNC(=O)c1noc(-c2cc(C(C)C)c(O)cc2O)c1-c1ccc(CN2CCOCC2)cc1 [Luminespib] (partner 0.01 µM)
Summary of the method: as §1

[4] = compound: COc1cc2nc(N3CCCN(C)CC3)nc(NC3CCN(Cc4ccccc4)CC3)c2cc1OC + CC(C)C[C@H](NC(=O)[C@H](Cc1ccccc1)NC(=O)c1cnccn1)B(O)O [Bortezomib] (partner 0.002 µM)
Summary of the method: as §1

With NCI-H1993 the relative viability ([1]; first compound 0.08 µM) was 0.514, the relative viability ([1]; first compound 0.253 µM) was 0.543 and the relative viability ([1]; first compound 0.8 µM) was 0.442. It also gave a relative viability ([1]; first compound 2.53 µM) of 0.348, a relative viability ([1]; first compound 8 µM) of 0.542 and a relative viability ([2]; first compound 0.2 µM) of 0.566. It also gave a relative viability ([2]; first compound 0.6325 µM) of 0.522, a relative viability ([2]; first compound 2 µM) of 0.58 and a relative viability ([2]; first compound 6.325 µM) of 0.568. For the same cell line, the relative viability ([3]; first compound 0.08 µM) was 0.509, the relative viability ([3]; first compound 0.253 µM) was 0.711 and the relative viability ([3]; first compound 0.8 µM) was 0.737. It also gave a relative viability ([3]; first compound 2.53 µM) of 0.571, a relative viability ([3]; first compound 8 µM) of 0.616 and a relative viability ([4]; first compound 0.2 µM) of 1.02. The relative viability ([4]; first compound 0.6325 µM) was 1.37, the relative viability ([4]; first compound 2 µM) was 1.23 and the relative viability ([4]; first compound 6.325 µM) was 1.05.
NCI-H2009 showed a relative viability ([1]; first compound 0.08 µM) of 0.2, a relative viability ([1]; first compound 0.253 µM) of 0.232 and a relative viability ([1]; first compound 0.8 µM) of 0.218. The relative viability ([1]; first compound 2.53 µM) was 0.165, the relative viability ([1]; first compound 8 µM) was 0.183 and the relative viability ([2]; first compound 0.2 µM) was 0.396. For the same cell line, the relative viability ([2]; first compound 0.6325 µM) was 0.392, the relative viability ([2]; first compound 2 µM) was 0.43 and the relative viability ([2]; first compound 6.325 µM) was 0.375. The relative viability ([3]; first compound 0.08 µM) was 1.04, the relative viability ([3]; first compound 0.253 µM) was 1.11 and the relative viability ([3]; first compound 0.8 µM) was 1.08. For the same cell line, the relative viability ([3]; first compound 2.53 µM) was 0.771, the relative viability ([3]; first compound 8 µM) was 0.963 and the relative viability ([4]; first compound 0.2 µM) was 0.94. It also gave a relative viability ([4]; first compound 0.6325 µM) of 0.833, a relative viability ([4]; first compound 2 µM) of 1.08 and a relative viability ([4]; first compound 6.325 µM) of 0.965.
For NCI-H2023, the relative viability ([1]; first compound 0.08 µM) was 0.454, the relative viability ([1]; first compound 0.253 µM) was 0.494 and the relative viability ([1]; first compound 0.8 µM) was 0.566. It also gave a relative viability ([1]; first compound 2.53 µM) of 0.3, a relative viability ([1]; first compound 8 µM) of 0.423 and a relative viability ([2]; first compound 0.2 µM) of 0.226. For the same cell line, the relative viability ([2]; first compound 0.6325 µM) was 0.218, the relative viability ([2]; first compound 2 µM) was 0.25 and the relative viability ([2]; first compound 6.325 µM) was 0.114. It also gave a relative viability ([3]; first compound 0.08 µM) of 0.603, a relative viability ([3]; first compound 0.253 µM) of 0.574 and a relative viability ([3]; first compound 0.8 µM) of 0.795. For the same cell line, the relative viability ([3]; first compound 2.53 µM) was 0.518, the relative viability ([3]; first compound 8 µM) was 0.324 and the relative viability ([4]; first compound 0.2 µM) was 1.02. It also gave a relative viability ([4]; first compound 0.6325 µM) of 0.967, a relative viability ([4]; first compound 2 µM) of 1.05 and a relative viability ([4]; first compound 6.325 µM) of 0.329.
With NCI-H2085 the relative viability ([1]; first compound 0.08 µM) was 0.203, the relative viability ([1]; first compound 0.253 µM) was 0.159 and the relative viability ([1]; first compound 0.8 µM) was 0.21. For the same cell line, the relative viability ([1]; first compound 2.53 µM) was 0.198, the relative viability ([1]; first compound 8 µM) was 0.216 and the relative viability ([2]; first compound 0.2 µM) was 0.53. For the same cell line, the relative viability ([2]; first compound 0.6325 µM) was 0.531, the relative viability ([2]; first compound 2 µM) was 0.594 and the relative viability ([2]; first compound 6.325 µM) was 0.559. It also gave a relative viability ([3]; first compound 0.08 µM) of 0.36, a relative viability ([3]; first compound 0.253 µM) of 0.194 and a relative viability ([3]; first compound 0.8 µM) of 0.22. It also gave a relative viability ([3]; first compound 2.53 µM) of 0.22, a relative viability ([3]; first compound 8 µM) of 0.346 and a relative viability ([4]; first compound 0.2 µM) of 1. It also gave a relative viability ([4]; first compound 0.6325 µM) of 0.978, a relative viability ([4]; first compound 2 µM) of 0.996 and a relative viability ([4]; first compound 6.325 µM) of 0.912.
With NCI-H2087 the relative viability ([1]; first compound 0.08 µM) was 0.722, the relative viability ([1]; first compound 0.253 µM) was 0.822 and the relative viability ([1]; first compound 0.8 µM) was 0.951. The relative viability ([1]; first compound 8 µM) was 0.74, the relative viability ([2]; first compound 0.2 µM) was 0.318 and the relative viability ([2]; first compound 0.6325 µM) was 0.261. The relative viability ([2]; first compound 2 µM) was 0.219, the relative viability ([2]; first compound 6.325 µM) was 0.212 and the relative viability ([3]; first compound 0.08 µM) was 0.183. The relative viability ([3]; first compound 0.253 µM) was 0.161, the relative viability ([3]; first compound 0.8 µM) was 0.213 and the relative viability ([3]; first compound 8 µM) was 0.16. For the same cell line, the relative viability ([4]; first compound 0.2 µM) was 0.868, the relative viability ([4]; first compound 0.6325 µM) was 0.795 and the relative viability ([4]; first compound 2 µM) was 0.884. It also gave a relative viability ([4]; first compound 6.325 µM) of 0.675.
NCI-H2126 showed a relative viability ([1]; first compound 0.08 µM) of 0.542, a relative viability ([1]; first compound 0.253 µM) of 0.578 and a relative viability ([1]; first compound 0.8 µM) of 0.568. The relative viability ([1]; first compound 2.53 µM) was 0.284, the relative viability ([1]; first compound 8 µM) was 0.317 and the relative viability ([2]; first compound 0.2 µM) was 0.577. For the same cell line, the relative viability ([2]; first compound 0.6325 µM) was 0.55, the relative viability ([2]; first compound 2 µM) was 0.561 and the relative viability ([2]; first compound 6.325 µM) was 0.567. For the same cell line, the relative viability ([3]; first compound 0.08 µM) was 0.933, the relative viability ([3]; first compound 0.253 µM) was 0.836 and the relative viability ([3]; first compound 0.8 µM) was 0.841. It also gave a relative viability ([3]; first compound 2.53 µM) of 0.373, a relative viability ([3]; first compound 8 µM) of 0.68 and a relative viability ([4]; first compound 0.2 µM) of 1.15. It also gave a relative viability ([4]; first compound 0.6325 µM) of 1.09, a relative viability ([4]; first compound 2 µM) of 1.13 and a relative viability ([4]; first compound 6.325 µM) of 1.08.
Cell Line NCI-H2347 has a relative viability ([1]; first compound 0.08 µM) of 0.271, a relative viability ([1]; first compound 0.253 µM) of 0.244 and a relative viability ([1]; first compound 0.8 µM) of 0.262. For the same cell line, the relative viability ([1]; first compound 2.53 µM) was 0.298, the relative viability ([1]; first compound 8 µM) was 0.281 and the relative viability ([2]; first compound 0.2 µM) was 0.586. For the same cell line, the relative viability ([2]; first compound 0.6325 µM) was 0.617, the relative viability ([2]; first compound 2 µM) was 0.615 and the relative viability ([2]; first compound 6.325 µM) was 0.606. It also gave a relative viability ([3]; first compound 0.08 µM) of 0.329, a relative viability ([3]; first compound 0.253 µM) of 0.231 and a relative viability ([3]; first compound 0.8 µM) of 0.583. For the same cell line, the relative viability ([3]; first compound 2.53 µM) was 0.27, the relative viability ([3]; first compound 8 µM) was 0.281 and the relative viability ([4]; first compound 0.2 µM) was 1.04. For the same cell line, the relative viability ([4]; first compound 0.6325 µM) was 0.846, the relative viability ([4]; first compound 2 µM) was 1.08 and the relative viability ([4]; first compound 6.325 µM) was 1.07.
Work on NCI-H2405 yielded a relative viability ([1]; first compound 0.08 µM) of 0.161, a relative viability ([1]; first compound 0.8 µM) of 0.232 and a relative viability ([1]; first compound 2.53 µM) of 0.206. It also gave a relative viability ([1]; first compound 8 µM) of 0.191, a relative viability ([2]; first compound 0.2 µM) of 0.706 and a relative viability ([2]; first compound 0.6325 µM) of 0.745. The relative viability ([2]; first compound 2 µM) was 0.784, the relative viability ([2]; first compound 6.325 µM) was 0.729 and the relative viability ([3]; first compound 0.08 µM) was 0.367. The relative viability ([3]; first compound 0.8 µM) was 0.612, the relative viability ([3]; first compound 2.53 µM) was 0.261 and the relative viability ([3]; first compound 8 µM) was 0.385. It also gave a relative viability ([4]; first compound 0.2 µM) of 0.978, a relative viability ([4]; first compound 0.6325 µM) of 0.987 and a relative viability ([4]; first compound 2 µM) of 1.04. For the same cell line, the relative viability ([4]; first compound 6.325 µM) was 0.971.
In the case of NCI-H3122, the relative viability ([1]; first compound 0.08 µM) is reported as 0.775, the relative viability ([1]; first compound 0.253 µM) is reported as 0.828 and the relative viability ([1]; first compound 0.8 µM) is reported as 0.94. It also gave a relative viability ([1]; first compound 2.53 µM) of 0.361, a relative viability ([1]; first compound 8 µM) of 0.695 and a relative viability ([2]; first compound 0.2 µM) of 0.398. For the same cell line, the relative viability ([2]; first compound 0.6325 µM) was 0.451, the relative viability ([2]; first compound 2 µM) was 0.461 and the relative viability ([2]; first compound 6.325 µM) was 0.363. For the same cell line, the relative viability ([3]; first compound 0.08 µM) was 0.094, the relative viability ([3]; first compound 0.253 µM) was 0.0817 and the relative viability ([3]; first compound 0.8 µM) was 0.108. It also gave a relative viability ([3]; first compound 2.53 µM) of 0.0814, a relative viability ([3]; first compound 8 µM) of 0.0719 and a relative viability ([4]; first compound 0.2 µM) of 0.97. For the same cell line, the relative viability ([4]; first compound 0.6325 µM) was 0.966, the relative viability ([4]; first compound 2 µM) was 1.07 and the relative viability ([4]; first compound 6.325 µM) was 0.989.

From the supplement of paper PMC10307832
